# Experimental data from the supplement of paper PMC10307832.
# Compound: Cc1nc(C(=O)NCC(=O)O)c(O)c2ccc(Oc3ccccc3)cc12 [FG-4592] + CS(=O)(=O)CCNCc1ccc(-c2ccc3ncnc(Nc4ccc(OCc5cccc(F)c5)c(Cl)c4)c3c2)o1 [Lapatinib] (partner 2 µM)
# Test: relative viability (nuclei count vs DMSO), 5 days (fraction); higher = more cells survive
# Details: first compound 0.08 µM
# Procedure, shortened: (§1)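 Relative viability divides the nuclei count in treated wells by that in vehicle wells. Lung cancer cell lines were seeded in 1536-well plates, dosed by pin tool the next day, and fixed and stained after 5 days in one step with final 0.05% Triton X-100, 1% formaldehyde and 1 ug/ml Hoechst. Dosing was a single drug or a fixed anchor-drug dose plus five library-drug doses (not always all listed) in √10 steps, and values are medians of duplicate plates imaged at 4×.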
row,Cell Line,relative viability
1,NCI-H727,0.632
2,NCI-H1650,0.637
3,EBC-1,0.24
4,NCI-H1703,1.11
5,NCI-H1993,0.848
6,SW 1573,1.05
7,NCI-H838,0.976
8,NCI-H520,0.754
9,NCI-H2126,0.672
10,EMC-BAC-2,0.853

# Same assay, conditions: first compound 0.253 µM
row,Cell Line,relative viability
1,NCI-H727,0.809
2,NCI-H1650,0.704
3,EBC-1,0.25
4,NCI-H1703,0.881
5,NCI-H1993,0.885
6,SW 1573,1.12
7,NCI-H838,1.02
8,NCI-H520,0.758
9,NCI-H2126,0.708
10,EMC-BAC-2,0.866

# Same assay, conditions: first compound 0.8 µM
row,Cell Line,relative viability
1,NCI-H727,0.742
2,NCI-H1650,0.544
3,EBC-1,0.206
4,NCI-H1703,1.11
5,NCI-H1993,0.744
6,SW 1573,1.11
7,NCI-H838,0.901
8,NCI-H520,0.828
9,NCI-H2126,0.604
10,EMC-BAC-2,0.808

# Same assay, conditions: first compound 2.53 µM
row,Cell Line,relative viability
1,NCI-H727,0.754
2,NCI-H1650,0.677
3,EBC-1,0.201
4,NCI-H1703,0.966
5,NCI-H1993,0.929
6,SW 1573,1.11
7,NCI-H838,0.822
8,NCI-H520,0.793
9,NCI-H2126,0.613
10,EMC-BAC-2,0.731

# Same assay, conditions: first compound 8 µM
row,Cell Line,relative viability
1,NCI-H727,0.863
2,NCI-H1650,0.78
3,EBC-1,0.232
4,NCI-H1703,0.936
5,NCI-H1993,0.719
6,SW 1573,1.22
7,NCI-H838,0.966
8,NCI-H520,0.721
9,NCI-H2126,0.589
10,EMC-BAC-2,0.842

# Compound: CC1=CC(=C(N1C2=CC=C(C=C2)Cl)C)C(=O)CN3CCCCC3 [IU1-47] + CS(=O)(=O)N1CCN(Cc2cc3nc(-c4cccc5[nH]ncc45)nc(N4CCOCC4)c3s2)CC1 [Pictilisib] (partner 1 µM)
# Test: as above
# Details: first compound 0.08 µM
# Procedure, shortened: as §1
row,Cell Line,relative viability
1,NCI-H727,0.33
2,NCI-H1650,0.634
3,EBC-1,0.45
4,NCI-H1703,0.254
5,NCI-H1993,0.899
6,SW 1573,0.524
7,NCI-H838,0.391
8,LCLC-103H,0.586
9,NCI-H520,0.303
10,NCI-H2126,0.47
11,EMC-BAC-2,0.547
12,ChaGo-K-1,0.753
13,NCI-H441,0.483

# Same assay, conditions: first compound 0.253 µM
row,Cell Line,relative viability
1,NCI-H1650,0.587
2,EBC-1,0.387
3,NCI-H1703,0.255
4,NCI-H1993,0.769
5,SW 1573,0.563
6,NCI-H838,0.462
7,LCLC-103H,0.566
8,NCI-H520,0.297
9,NCI-H2126,0.477
10,EMC-BAC-2,0.51
11,ChaGo-K-1,0.758
12,NCI-H441,0.486

# Same assay, conditions: first compound 0.8 µM
row,Cell Line,relative viability
1,NCI-H727,0.356
2,NCI-H1650,0.682
3,EBC-1,0.416
4,NCI-H1703,0.218
5,NCI-H1993,0.86
6,SW 1573,0.391
7,NCI-H838,0.485
8,LCLC-103H,0.624
9,NCI-H520,0.378
10,NCI-H2126,0.52
11,EMC-BAC-2,0.545
12,ChaGo-K-1,0.62
13,NCI-H441,0.464

# Same assay, conditions: first compound 2.53 µM
row,Cell Line,relative viability
1,NCI-H727,0.264
2,NCI-H1650,0.295
3,EBC-1,0.501
4,NCI-H1703,0.32
5,NCI-H1993,0.913
6,SW 1573,0.553
7,NCI-H838,0.436
8,LCLC-103H,0.509
9,NCI-H520,0.331
10,NCI-H2126,0.382
11,EMC-BAC-2,0.572
12,ChaGo-K-1,0.457
13,NCI-H441,0.504

# Same assay, conditions: first compound 8 µM
row,Cell Line,relative viability
1,NCI-H727,0.355
2,NCI-H1650,0.27
3,EBC-1,0.336
4,NCI-H1703,0.25
5,NCI-H1993,0.821
6,SW 1573,0.471
7,NCI-H838,0.425
8,LCLC-103H,0.639
9,NCI-H520,0.237
10,NCI-H2126,0.493
11,EMC-BAC-2,0.489
12,ChaGo-K-1,0.43
13,NCI-H441,0.43

# Compound: CC1=CC(=C(N1C2=CC=C(C=C2)Cl)C)C(=O)CN3CCCCC3 [IU1-47]
# Test: relative viability (nuclei count vs DMSO), 5 days (fraction); higher = more cells survive
# Details: 0.08 µM
# Procedure, shortened: (§2)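 In 1536-well plates, lung cancer cell lines rested overnight at 37 °C before five library-drug doses (not always all listed), √10 apart, were pinned onto vehicle-anchored plates. Nuclei were counted with MetaXpress from 4× Hoechst images taken after 5 days without medium change. Viability compares treated-well with vehicle-well nuclei as a median over plates, and plates needed control CV below 25% plus at least one doubling to pass.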
row,Cell Line,relative viability
1,NCI-H522,0.959
2,NCI-H1623,1.04
3,NCI-H727,1.03
4,NCI-H1650,0.9
5,EBC-1,1.06
6,NCI-H1703,1.03
7,NCI-H1993,0.927
8,SW 1573,1.03
9,NCI-H838,1.01
10,LCLC-103H,1.03
11,NCI-H520,0.989
12,NCI-H2126,1.09
13,EMC-BAC-2,1.1
14,NCI-H2342,1.03
15,ChaGo-K-1,0.982
16,SW 900,0.771
17,NCI-H1648,0.947
18,NCI-H441,1.24

# Same assay, conditions: 0.253 µM
row,Cell Line,relative viability
1,NCI-H522,0.975
2,NCI-H1623,0.981
3,NCI-H727,0.938
4,NCI-H1650,1.04
5,EBC-1,0.954
6,NCI-H1703,0.75
7,NCI-H1993,1.07
8,SW 1573,1.05
9,NCI-H838,1.05
10,LCLC-103H,1.1
11,NCI-H520,0.973
12,NCI-H2126,1.02
13,EMC-BAC-2,1.09
14,NCI-H2342,1.03
15,ChaGo-K-1,0.997
16,SW 900,0.589
17,NCI-H1648,1.17
18,NCI-H441,1.16

# Same assay, conditions: 0.8 µM
row,Cell Line,relative viability
1,NCI-H522,1.01
2,NCI-H1623,0.974
3,NCI-H727,1.12
4,NCI-H1650,0.951
5,EBC-1,1.05
6,NCI-H1703,0.894
7,NCI-H1993,0.856
8,SW 1573,0.958
9,NCI-H838,1.04
10,LCLC-103H,0.871
11,NCI-H520,0.981
12,NCI-H2126,1.1
13,EMC-BAC-2,0.974
14,NCI-H2342,1.28
15,ChaGo-K-1,1.04
16,SW 900,0.82
17,NCI-H1648,1.17
18,NCI-H441,1.07

# Same assay, conditions: 2.53 µM
row,Cell Line,relative viability
1,NCI-H522,0.82
2,NCI-H1623,0.812
3,NCI-H727,0.755
4,NCI-H1650,0.831
5,EBC-1,0.921
6,NCI-H1703,0.921
7,NCI-H1993,0.974
8,SW 1573,0.857
9,NCI-H838,1.01
10,LCLC-103H,0.976
11,NCI-H520,0.879
12,NCI-H2126,0.698
13,EMC-BAC-2,0.977
14,NCI-H2342,1.15
15,ChaGo-K-1,0.811
16,SW 900,0.68
17,NCI-H1648,0.557
18,NCI-H441,1.01

# Same assay, conditions: 8 µM
row,Cell Line,relative viability
1,NCI-H522,0.874
2,NCI-H1623,0.882
3,NCI-H727,0.867
4,NCI-H1650,0.845
5,EBC-1,0.867
6,NCI-H1703,0.922
7,NCI-H1993,0.914
8,SW 1573,0.934
9,NCI-H838,0.955
10,LCLC-103H,0.933
11,NCI-H520,0.849
12,NCI-H2126,0.957
13,EMC-BAC-2,0.974
14,NCI-H2342,0.985
15,ChaGo-K-1,0.821
16,SW 900,0.742
17,NCI-H1648,0.552
18,NCI-H441,1.07

# Compound: Cc1nc(C(=O)NCC(=O)O)c(O)c2ccc(Oc3ccccc3)cc12 [FG-4592]
# Test: as above
# Details: 0.08 µM
# Procedure, shortened: as §2
row,Cell Line,relative viability
1,NCI-H522,0.958
2,NCI-H1623,0.964
3,NCI-H727,0.88
4,NCI-H1650,0.835
5,EBC-1,1.07
6,NCI-H1703,0.901
7,NCI-H1993,0.987
8,SW 1573,0.936
9,NCI-H838,0.962
10,LCLC-103H,0.955
11,NCI-H520,0.873
12,NCI-H2126,0.969
13,EMC-BAC-2,0.947
14,NCI-H2342,0.985
15,ChaGo-K-1,0.97
16,SW 900,0.699
17,NCI-H1648,0.798
18,NCI-H441,1.05

# Same assay, conditions: 0.253 µM
row,Cell Line,relative viability
1,NCI-H522,0.947
2,NCI-H1623,0.824
3,NCI-H727,0.921
4,NCI-H1650,0.858
5,EBC-1,0.977
6,NCI-H1703,0.823
7,NCI-H1993,0.925
8,SW 1573,0.79
9,NCI-H838,0.937
10,LCLC-103H,0.971
11,NCI-H520,0.897
12,NCI-H2126,0.906
13,EMC-BAC-2,0.929
14,NCI-H2342,0.97
15,ChaGo-K-1,0.975
16,SW 900,0.954
17,NCI-H1648,0.926
18,NCI-H441,0.928

# Same assay, conditions: 0.8 µM
row,Cell Line,relative viability
1,NCI-H522,0.761
2,NCI-H1623,0.858
3,NCI-H727,0.894
4,NCI-H1650,0.986
5,EBC-1,0.95
6,NCI-H1703,0.935
7,NCI-H1993,0.64
8,SW 1573,0.909
9,NCI-H838,0.853
10,LCLC-103H,0.807
11,NCI-H520,0.827
12,NCI-H2126,0.82
13,EMC-BAC-2,0.674
14,NCI-H2342,0.839
15,ChaGo-K-1,0.935
16,SW 900,0.514
17,NCI-H1648,0.907
18,NCI-H441,0.98

# Same assay, conditions: 2.53 µM
row,Cell Line,relative viability
1,NCI-H522,0.992
2,NCI-H1623,1.05
3,NCI-H727,0.944
4,NCI-H1650,0.935
5,EBC-1,0.94
6,NCI-H1703,0.904
7,NCI-H1993,0.827
8,SW 1573,0.994
9,NCI-H838,0.946
10,LCLC-103H,0.865
11,NCI-H520,0.943
12,NCI-H2126,0.846
13,EMC-BAC-2,0.938
14,NCI-H2342,0.812
15,ChaGo-K-1,0.967
16,SW 900,0.913
17,NCI-H1648,0.83
18,NCI-H441,0.756

# Same assay, conditions: 8 µM
row,Cell Line,relative viability
1,NCI-H522,0.823
2,NCI-H1623,0.769
3,NCI-H727,0.992
4,NCI-H1650,0.979
5,EBC-1,0.953
6,NCI-H1703,0.772
7,NCI-H1993,0.78
8,SW 1573,0.896
9,NCI-H838,0.923
10,LCLC-103H,0.938
11,NCI-H520,0.761
12,NCI-H2126,0.901
13,EMC-BAC-2,0.779
14,NCI-H2342,0.82
15,ChaGo-K-1,0.937
16,SW 900,1.13
17,NCI-H1648,1.28
18,NCI-H441,0.787
